Measurements from PubChem BioAssay AID256 (DTP/NCI, 2004).
“And” between values parts separate entries of the source, which are not always exact repeats. Identical values can stand only once. Inconclusive results and toxic doses are left out. Rule for the calls: active = survival T/C of 150% or more; inactive = T/C below 125% in these data.

System: CD2F1 mice, L1210 leukemia ip, survival T/C
Test: NCI In Vivo Anticancer Drug Screen. Data for tumor model L1210 Leukemia (intraperitoneal) in CD2F1 (CDF1) mice
Conditions: higher = longer survival
Procedure, shortened: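 Ratio T/C, where T is the treated-group value and C the vehicle-dosed control value, from mice implanted with a transplantable tumor.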

[1] = endpoint: mean survival time, dose: 50.0 mg/kg/injection, schedule: Q01DX009 (ip), vehicle: saline with Tween-80
[2] = endpoint: mean survival time, dose: 100.0 mg/kg/injection, schedule: Q01DX001 (ip), vehicle: saline with Tween-80
[3] = endpoint: mean survival time, dose: 200.0 mg/kg/injection, schedule: Q01DX001 (ip), vehicle: saline with Tween-80
[4] = endpoint: mean survival time, dose: 100.0 mg/kg/injection, schedule: Q04DX002 (ip), vehicle: saline with Tween-80
[5] = endpoint: mean survival time, dose: 200.0 mg/kg/injection, schedule: Q04DX002 (ip), vehicle: saline with Tween-80
[6] = endpoint: mean survival time, dose: 400.0 mg/kg/injection, schedule: Q01DX001 (ip), vehicle: saline with Tween-80
[7] = endpoint: mean survival time, dose: 100.0 mg/kg/injection, schedule: Q01DX001 (ip), vehicle: saline
[8] = endpoint: mean survival time, dose: 200.0 mg/kg/injection, schedule: Q01DX001 (ip), vehicle: saline
[9] = endpoint: mean survival time, dose: 400.0 mg/kg/injection, schedule: Q01DX001 (ip), vehicle: saline
[10] = endpoint: mean survival time, dose: 100.0 mg/kg/injection, schedule: Q04DX003 (ip), vehicle: saline with Tween-80
[11] = endpoint: mean survival time, dose: 200.0 mg/kg/injection, schedule: Q04DX003 (ip), vehicle: saline with Tween-80
[12] = endpoint: mean survival time, dose: 400.0 mg/kg/injection, schedule: Q04DX003 (ip), vehicle: saline with Tween-80
[13] = endpoint: mean survival time, dose: 100.0 mg/kg/injection, schedule: Q01DX009 (ip), vehicle: saline with Tween-80
[14] = endpoint: mean survival time, dose: 200.0 mg/kg/injection, schedule: Q01DX009 (ip), vehicle: saline with Tween-80

Measured: T/C

CC12CCC(C/C1=N\O)C2(C)C (configuration not stated)
inactive: endpoint: mean survival time, dose: 12.5 mg/kg/injection, schedule: Q01DX009 (ip), vehicle: saline with Tween-80 106 % of control | endpoint: mean survival time, dose: 25.0 mg/kg/injection, schedule: Q01DX009 (ip), vehicle: saline with Tween-80 97 % of control | [1] 102 % of control

CCN1/C(=C/C=C/c2oc3ccc4ccccc4c3[n+]2CC)Oc2ccc3ccccc3c21
inactive: endpoint: mean survival time, dose: 9.5 mg/kg/injection, schedule: Q01DX001 (ip), vehicle: other 104 % of control | endpoint: mean survival time, dose: 19.0 mg/kg/injection, schedule: Q01DX001 (ip), vehicle: other 112 % of control | endpoint: mean survival time, dose: 38.0 mg/kg/injection, schedule: Q01DX001 (ip), vehicle: other 118 % of control

COc1cc(C=O)ccc1OC1OC(C(COC(C)=O)OC(C)=O)C(OC(C)=O)C(OC(C)=O)C1OC(C)=O (configuration not stated)
inactive: endpoint: mean survival time, dose: 50.0 mg/kg/injection, schedule: Q01DX001 (ip), vehicle: saline with Tween-80 93 % of control | [2] 88 % of control | [3] 88 % of control

COc1ccc(OC)c(/C=C(/C#N)C(N)=O)c1
inactive: endpoint: mean survival time, dose: 50.0 mg/kg/injection, schedule: Q04DX002 (ip), vehicle: saline with Tween-80 104 % of control | [4] 93 % of control | [3] 91 % of control | [5] 93 % of control | [6] 90 % of control

C#C[C@]1(O)CC[C@H]2[C@@H]3CCc4cc(O)ccc4[C@H]3CC[C@@]21C
inactive: endpoint: median survival time, dose: 31.2 mg/kg/injection, schedule: Q01DX009 (ip), vehicle: saline with Tween-80 106 % of control | endpoint: median survival time, dose: 62.5 mg/kg/injection, schedule: Q01DX009 (ip), vehicle: saline with Tween-80 97 % of control | endpoint: median survival time, dose: 125.0 mg/kg/injection, schedule: Q01DX009 (ip), vehicle: saline with Tween-80 97 % of control | endpoint: median survival time, dose: 250.0 mg/kg/injection, schedule: Q01DX009 (ip), vehicle: saline with Tween-80 101 % of control | endpoint: median survival time, dose: 500.0 mg/kg/injection, schedule: Q01DX009 (ip), vehicle: saline with Tween-80 104 % of control

Nc1ccnc(Oc2ccc(Cl)cc2)n1
inactive: [2] 104 % of control | [3] 104 % of control | [6] 98 % of control

CC(=O)Nc1ccc(S(=O)(=O)CBr)cc1
inactive: [7] 102 % of control | [8] 97 % of control | [9] 96 % of control

CCCCCCCCCCCCCCCCC1CCCC1C1CCCC1 (configuration not stated)
inactive: endpoint: mean survival time, dose: 100.0 mg/kg/injection, schedule: Q01DX001 (ip), vehicle: saline sonified 102 % of control | endpoint: mean survival time, dose: 200.0 mg/kg/injection, schedule: Q01DX001 (ip), vehicle: saline sonified 101 % of control | endpoint: mean survival time, dose: 400.0 mg/kg/injection, schedule: Q01DX001 (ip), vehicle: saline sonified 96 % of control

Nc1ccc(C(=O)Nc2cccc(S(=O)(=O)F)c2)cc1
inactive: [2] 101 % of control | [3] 98 % of control | [6] 93 % of control

c1cc[c]([Sb]([c]2ccccc2)[c]2ccccc2)cc1
inactive: endpoint: mean survival time, dose: 20.0 mg/kg/injection, schedule: Q04DX003 (ip), vehicle: saline sonified 97 % of control | endpoint: mean survival time, dose: 40.0 mg/kg/injection, schedule: Q04DX003 (ip), vehicle: saline sonified 94 % of control

O=C(O)CCCCCCCCC(=O)c1ccccc1
inactive: [10] 97 % of control | [11] 95 % of control | [12] 88 % of control

O=C(O)C1=CCCC(O)CC1 (configuration not stated)
inactive: [2] 95 % of control | [4] 100 % of control | [3] 94 % of control | [5] 96 % of control | [6] 95 % of control | endpoint: mean survival time, dose: 400.0 mg/kg/injection, schedule: Q04DX002 (ip), vehicle: saline with Tween-80 103 % of control

c1ccc(Sc2ccc3ccccc3c2)cc1
inactive: [10] 98 % of control | [11] 101 % of control | [12] 91 % of control

Nc1ncnc2c1ncn2C1OC(CO)C2NP(=O)(N(CCCl)CCCl)OC21 (configuration not stated)
inactive: endpoint: mean survival time, dose: 15.6 mg/kg/injection, schedule: Q01DX001 (ip), vehicle: distilled water + Tween-80 98 % of control and 101 % of control | endpoint: mean survival time, dose: 31.3 mg/kg/injection, schedule: Q01DX001 (ip), vehicle: distilled water + Tween-80 101 % of control | endpoint: mean survival time, dose: 62.5 mg/kg/injection, schedule: Q01DX001 (ip), vehicle: distilled water + Tween-80 101 % of control

COc1ccc(CNCCO)cc1O
inactive: [7] 101 % of control | [8] 98 % of control | [9] 98 % of control

CC1OC(O)CC(NC(=O)C(F)(F)F)C1O (configuration not stated)
inactive: endpoint: mean survival time, dose: 25.0 mg/kg/injection, schedule: Q01DX005 (ip), vehicle: water 98 % of control | endpoint: mean survival time, dose: 50.0 mg/kg/injection, schedule: Q01DX005 (ip), vehicle: water 95 % of control | endpoint: mean survival time, dose: 100.0 mg/kg/injection, schedule: Q01DX005 (ip), vehicle: water 98 % of control | endpoint: mean survival time, dose: 200.0 mg/kg/injection, schedule: Q01DX005 (ip), vehicle: water 107 % of control | endpoint: mean survival time, dose: 400.0 mg/kg/injection, schedule: Q01DX005 (ip), vehicle: water 98 % of control

CCCCCOC(=O)CC(N)C(=O)OCCCCC (configuration not stated)
inactive: [1] 96 % of control | [13] 100 % of control | [10] 93 % of control | [14] 91 % of control | [11] 93 % of control

NC(=S)N1N=C(c2cccc([N+](=O)[O-])c2)CCC1=O
inactive: [10] 111 % of control | [11] 111 % of control | [12] 107 % of control

CC/C=C/CCOC(=N)C(Cl)(Cl)Cl
inactive: [1] 92 % of control | [13] 92 % of control | [14] 101 % of control

CCCCCCCCCCCCNC(=O)C[N+](C)(C)Cc1ccc2c(c1)CCCC2
inactive: endpoint: mean survival time, dose: 5.0 mg/kg/injection, schedule: Q04DX003 (ip), vehicle: saline with Tween-80 95 % of control | endpoint: mean survival time, dose: 10.0 mg/kg/injection, schedule: Q04DX003 (ip), vehicle: saline with Tween-80 105 % of control

N#C/C(=C\c1ccc(-c2ccccc2)cc1)c1ccccc1
inactive: [11] 86 % of control | [12] 95 % of control

C[CH2][Sn]1([CH2]C)[O]C2C(CO)OC(n3ccc(N)nc3=O)C2[O]1 (configuration not stated)
inactive: endpoint: mean survival time, dose: 1.56 mg/kg/injection, schedule: Q01DX005 (ip), vehicle: water 97 % of control | endpoint: mean survival time, dose: 3.13 mg/kg/injection, schedule: Q01DX005 (ip), vehicle: water 111 % of control | endpoint: mean survival time, dose: 6.25 mg/kg/injection, schedule: Q01DX005 (ip), vehicle: water 100 % of control | endpoint: mean survival time, dose: 12.5 mg/kg/injection, schedule: Q01DX005 (ip), vehicle: other 103 % of control | endpoint: mean survival time, dose: 12.5 mg/kg/injection, schedule: Q01DX005 (ip), vehicle: water 105 % of control

O=C(Nc1ccc2ccccc2c1)c1ccc(Cl)cc1Cl
inactive: [10] 96 % of control | [11] 98 % of control | [12] 95 % of control

O=C(/C=C\c1ccc(O)c(O)c1)OC1C(O)CC(OC(=O)/C=C/c2ccc(O)c(O)c2)(C(=O)O)CC1O (configuration not stated)
inactive: endpoint: mean survival time, dose: 100.0 mg/kg/injection, schedule: Q04DX003 (ip), vehicle: saline 98 % of control | endpoint: mean survival time, dose: 200.0 mg/kg/injection, schedule: Q04DX003 (ip), vehicle: saline 96 % of control | endpoint: mean survival time, dose: 400.0 mg/kg/injection, schedule: Q04DX003 (ip), vehicle: saline 95 % of control

N#CCCCN=[N+]=[N-]
inactive: endpoint: mean survival time, dose: 75.0 mg/kg/injection, schedule: Q01DX001 (ip), vehicle: saline 96 % of control | endpoint: mean survival time, dose: 150.0 mg/kg/injection, schedule: Q01DX001 (ip), vehicle: saline 101 % of control

CC1(C)OC(=O)N(CO)C1=O
inactive: endpoint: mean survival time, dose: 12.5 mg/kg/injection, schedule: Q01DX009 (ip), vehicle: saline 100 % of control and 103 % of control | endpoint: mean survival time, dose: 25.0 mg/kg/injection, schedule: Q01DX009 (ip), vehicle: saline 97 % of control and 102 % of control | endpoint: mean survival time, dose: 50.0 mg/kg/injection, schedule: Q01DX009 (ip), vehicle: saline 100 % of control and 102 % of control | endpoint: mean survival time, dose: 100.0 mg/kg/injection, schedule: Q01DX009 (ip), vehicle: saline 114 % of control and 111 % of control | endpoint: mean survival time, dose: 200.0 mg/kg/injection, schedule: Q01DX009 (ip), vehicle: saline 120 % of control and 111 % of control | endpoint: mean survival time, dose: 400.0 mg/kg/injection, schedule: Q01DX009 (ip), vehicle: saline 91 % of control and 97 % of control

CC(CC(=O)c1ccccc1)=Nc1ccccc1.CC(CC(=O)c1ccccc1)=Nc1ccccc1.[O]=[V]
inactive: endpoint: mean survival time, dose: 50.0 mg/kg/injection, schedule: Q01DX001 (ip), vehicle: Klucel (hydroxypropylcellulose) (HPC) 96 % of control | endpoint: mean survival time, dose: 100.0 mg/kg/injection, schedule: Q01DX001 (ip), vehicle: Klucel (hydroxypropylcellulose) (HPC) 88 % of control | endpoint: mean survival time, dose: 200.0 mg/kg/injection, schedule: Q01DX001 (ip), vehicle: Klucel (hydroxypropylcellulose) (HPC) 94 % of control | endpoint: mean survival time, dose: 400.0 mg/kg/injection, schedule: Q01DX001 (ip), vehicle: Klucel (hydroxypropylcellulose) (HPC) 93 % of control | endpoint: mean survival time, dose: 800.0 mg/kg/injection, schedule: Q01DX001 (ip), vehicle: Klucel (hydroxypropylcellulose) (HPC) 90 % of control

O=Cc1cc(Cl)cc(Cl)c1O
inactive: [10] 96 % of control | [11] 98 % of control
